# Measured values published in patent US20260183305A1, “METHYLENE BLUE FOR USE IN THERAPY OF HEPATITIS B AND/OR HEPATITIS D INFECTION” (priority 2022, published 2026).
# Entries after “also recorded” stand apart in the source; their conditions may differ.
# Tests used:
# [1] = system: HBV surface antigen (HBsAg); test: HBsAg measurement by ELISA in supernatant of HDV infected HepNB2.7 cells; type: cell-based, Hepatitis B Virus
# Experimental: (§1) HepG2-NTCP and HepNB2.7 cells (plated at 10×10^3 cells/well) were infected with 10 or 50 MOI of HDV using PEG (polyethylene glycol) 4% overnight as previously described (Alfaiate D, Lucifora J et al.; cf. above). MB (2.5 or 1.25 μg/ml) was added 16 hrs post HDV infection for 5 h and cells were incubated at room temperature in the dark. Three and six days post infection, RNA was extracted and HDV RNA level was monitored by RT-qPCR in order to determine HDV replication as described below. For HepNB2.7, the level of HBsAg in the supernatant were measured as described below.
# For HepNB2.7, the level of HBsAg in the supernatant were measured at both time points by ELISA (Enzyme-Linked Immosorbent Assay, ABBOTT PRISM® HBsAg) according to the protocol of the manufacturer.
# (§2) HepG2-NTCP or HepNB2.7 cells were infected with different titers of HDV (10, 50, 100 MOI) and treated with 2.5 or 1.25 μg/ml of MB for 5 hours. Cells were analyzed at day 3 or day 6 post-infection and HDV replication was assessed by RT-PCR. For HepNB2.7, the level of HBsAg in the supernatant were measured at both time points.
# In a second experiment the secretion of the HBV surface antigen (HBsAg) was measured in the supernatant of cells infected with 10, 50 or 100 MOI and treated with MB (2.5 or 1.25 μg/ml).
# Influenza N1H1 virus = conditions: in vitro, hermetically closed box; cited from earlier work
# [2] = after oral administration; cited from earlier work
# [3] = transplacental exposure, mouse; cited from earlier work
# HDV [4] = test: MB HDV inhibition assay (HDV RNA by RT-qPCR) on HepNB2.7 cells; type: cell-based, Hepatitis D Virus
# Experimental: (§3) HepG2-NTCP or HepNB2.7 cells were infected with different titers of HDV (10, 50 MOI) and treated with 2.5 or 1.25 μg/ml of MB for 5 hours.
# as §1
# (§4) Total intracellular RNA was extracted using the Nucleospin RNA Kit (Macherey-Nagel AG). cDNA was synthesized from 100 ng total RNA using Superscript II and random hexamer primers (Roche Diagnosis). Quantification of HDV was performed by qRT-PCR as described (Alfaiate D, Lucifora J et al), using the primers described by Scholtes & colleagues (Scholtes C, Icard V, Amiri M et al; “Standardized one-step real-time reverse transcription-PCR assay for universal detection and quantification of hepatitis delta virus from clinical samples in the presence of a heterologous internal-control RNA.” J Clin Microbiol 2012;50:2126-2128.) and EEF1A1 as housekeeping gene.
# as §2
# The inhibitory effect of MB on HDV replication on HepNB2.7 cells was investigated. In a first experiment cells infected with either 10 or 50 MOI were treated with MB (2.5 or 1.25 μg/ml) and HDV replication was assessed at 3 days, or 6 days, post infection.
# HepNB2.7 cells = test: MTT cell viability assay, cytotoxicity of MB on HepNB2.7; type: cell-based; conditions: HepNB2.7, MTT
# HDV [5] = test: MB HDV inhibition assay (HDV RNA by RT-qPCR) on HepG2-NTCP cells; type: cell-based, Hepatitis D Virus; conditions: MB 2.5 or 1.25 μg/mL; for HDV RNA concentration: HepG2-NTCP
# Experimental: as §3, §1, §4, §2
# The inhibitory effect of MB on HDV replication on HepG2-NTCP cells was investigated. Cells infected with either 10 or 50 MOI of virus were treated with MB (2.5 or 1.25 μg/ml) and HDV replication was assessed at 3 days (A) or 6 days (B) post infection.
# [6] = Brazilian children, long periods of time; cited from earlier work
# [7] = 5 mg/ml solution for injection; cited from earlier work
# SARS-COV-2 = conditions: in vitro, hermetically closed box; cited from earlier work
smiles,measurement,setting,value
"CN(C)c1ccc2nc3ccc(N(C)C)cc3[s+]c2c1.[Cl-] [MB, [7-(dimethylamino)phenothiazin-3-ylidene]-dimethylazanium, chloride]",secretion of the HBV surface antigen (HBsAg) in the supernatant,"[1]; HepNB2.7 infected with 10, 50 or 100 MOI HDV, MB 2.5 or 1.25 μg/ml, all conditions tested",diminished secretion; also recorded: clear-cut dose/response relationship
same,antiviral effect of MB over time,[1]; results on day 3 and 6,accumulates over time
same,antiviral efficacy in the total dark,Influenza N1H1 virus,strong antiviral efficacy
same,bioavailability,[2],72%
same,elimination half-life,[2],18 h
same,teratogenicity,[3],teratogenic
same,HDV replication signal,"HDV [4]; HepNB2.7, 10 MOI, day 3 and 6",weak signal
same,effect of MB on viral reproduction (HDV replication),"HDV [4]; HepNB2.7, 50 MOI, day 6 post infection, MB 2.5 or 1.25 μg/ml",dose related effect
same,viral markers under long-term treatment (extrapolated),"HDV [4]; long-term treatment (weeks instead of days), cell lines, no data shown",complete disappearance of viral markers
same,long-term cytotoxic effect (percentage of viability),HepNB2.7 cells; 3 days after incubation with different concentrations of MB,significant toxicity
same,cytotoxic effect of MB in the presence of light as compared to dark,"HepNB2.7 cells; dark vs photoactivated under visible light, 3 days after incubation",not significantly enhanced
same,HDV RNA concentration,HDV [5]; 10 MOI,too low to distinguish the antiviral impact of MB
same,HDV RNA concentration,"HDV [5]; 50 MOI, 3 and 6 days post infection",clear dose response relationship
same,antiviral effect of MB against HDV infected HepG2-NTCP cells,HDV [5]; physiological drug concentrations,significant antiviral effect
same,dose tolerated very well,[6],20-50 mg/kg per day
same,compatibility with 0.9% saline solution,[7],not compatible
same,compatibility with 5% glucose or 5% dextrose solution,[7],compatible
same,antiviral efficacy in the total dark,SARS-COV-2,strong antiviral efficacy
